Usually IC50 stands for the midpoint of a concentration-inhibition curve.

The text below walks through data of patent EP1849776A1, “Azepane- or Azocane-substituted pyrazoline compounds, their preparation and use as medicaments” (LABORATORIOS DEL DR. ESTEVE, S.A., priority 2006, dated 2007).

One test relates to Male NMRI mice. Description: Mouse tetrad model, antagonistic activity against Win 55212-2. It is filed as in vivo. The following applies: against Win 55212-2 (1.25 mg/kg intravenous), substance injected 5 minutes before the agonist, tetrad component not specified. The text has this: Substances with affinity for cannabinoid receptors are known to produce a wide range of pharmacological effects. It is also known that intravenous administration of a substance with affinity for cannabinoid receptors in mice produces analgesia , hypothermia, sedation and catalepsy. Individually, none of these effects can be considered as proof that a tested substance has affinity for cannabinoid-receptors, since all of these effects are common for various classes of centrally active agents. However, substances, which show all of these effects, i.e. substances that are active in this so-called tetrad model are considered to have affinity for the cannabinoid receptors. It has further been shown that cannabinoid receptor antagonists are higly effective in blocking the effects of a cannabinoid agonist in the mouse tetrad model.
The tetrad model is described, for example, in the publication of A. C. Howlett et al, International Union of Pharmacology XXVII. […]
Before testing in the behavioral procedures given below, mice are acclimatized to the experimental setting. Pre-Treatment control values are determined for analgesia hot plate latency (in seconds), rectal temperature, sedation and catalepsy.
In order to determine the agonistic activty of the substance to be tested, the mice are injected intravenously with the substance to be tested or the vehicle alone. 15 minutes after injection, latency in hot plate analgesia is measured. Rectal temperature, sedation and catalepsy are measured 20 minutes after injection.
In order to determine the antagonistic activity the identical procedure is used as for the determination of the agonistic effects, but with the difference that the substance to be evaluated for its antagonistic activity is injectected 5 minutes before the intravenous injection of 1.25 mg/kg Win-55,212 a known cannabinoid-receptor agonist.
The hot plate analgesia is determined according to the method described in Woolfe D. et al. "The evaluation of analgesic action of pethidine hydrochloride (Demerol)", J. Pharmacol. Exp. Ther. 80, 300-307,1944. […]

A further test deals with T1, CB1-Receptor (Homo sapiens, UniProt P21554).
T1 construct: purchased Receptor Biology, Inc
Nature of the test: In-vitro determination of affinity to CB1 receptor (radioligand binding). As to conditions: transfected human CB1 receptors of Receptor Biology, Inc.; radioligand [^3H]-CP55940; read-out: CB1-Receptor Radiologand:[^3H]-CP55940 IC50. The procedure:
The in-vitro determination of the affinity of the inventive quaternary ammonium salts of substituted pyrazoline compounds to CB1/CB2-Rezeptors is carried out as described in the publication of Ruth A. Ross, Heather C. Brockie et al., "Agonist-inverse agonist characterization at CB1 and CB2 cannabinoid receptors of L-759633, L759656 and AM630", British Journal of Pharmacology, 126, 665-672, (1999), whereby the transfected human CB1 and CB2 receptors of Receptor Biology, Inc. are used. The radioligand used for both receptors is [^3H]-CP55940. The respective parts of the description are hereby incorporated by reference and forms part of the present disclosure.

T1 sequence (P21554 whole entry): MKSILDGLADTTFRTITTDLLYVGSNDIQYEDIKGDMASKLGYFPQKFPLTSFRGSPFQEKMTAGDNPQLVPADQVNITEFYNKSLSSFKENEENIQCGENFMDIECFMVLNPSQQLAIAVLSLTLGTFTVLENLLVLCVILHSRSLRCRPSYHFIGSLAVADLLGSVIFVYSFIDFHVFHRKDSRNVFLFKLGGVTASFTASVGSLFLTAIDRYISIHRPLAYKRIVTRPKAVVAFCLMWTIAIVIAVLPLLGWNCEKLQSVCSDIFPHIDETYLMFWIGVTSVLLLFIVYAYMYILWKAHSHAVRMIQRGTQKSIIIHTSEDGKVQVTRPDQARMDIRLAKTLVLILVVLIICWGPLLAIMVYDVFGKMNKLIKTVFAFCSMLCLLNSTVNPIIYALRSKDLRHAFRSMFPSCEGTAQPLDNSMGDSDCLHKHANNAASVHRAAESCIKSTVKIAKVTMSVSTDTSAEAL

For the molecule `O=C(NN1CCCCCC1)C1=NN(c2ccc(Cl)cc2Cl)C(c2ccc(Cl)cc2)C1` (centres unmarked) [Example 1, N-(azepan-1-yl)-5-(4-chlorophenyl)-1-(2,4-dichlorophenyl)-4,5-dihydro-1H-pyrazole-3-carboxamide], the “Antagonistic Effect in (%)” value with Male NMRI mice is on record as 116±2%. On CB1-Receptor, the IC50 was determined as 25 nM.

Consider `O=C(NN1CCCCCC1)C1=NN(c2ccc(Cl)cc2Cl)[C@@H](c2ccc(Cl)cc2)C1` [Example 2, (R)-N-(azepan-1-yl)-5-(4-chlorophenyl)-1-(2,4-dichlorophenyl)-4,5-dihydro-1H-pyrazole-3-carboxamide], for which the “Antagonistic Effect in (%)” value in the test on Male NMRI mice came out at 137.2%. Further, at CB1-Receptor, the IC50 turned out to be 7.9 nM.

`O=C(NN1CCCCCC1)C1=NN(c2ccc(Cl)cc2Cl)C(c2ccc(Br)cc2)C1` (centres unmarked) [Example 4, N-(azepan-1-yl)-5-(4-bromophenyl)-1-(2,4-dichlorophenyl)-4,5-dihydro-1H-pyrazole-3-carboxamide]: in the test on Male NMRI mice, the “Antagonistic Effect in (%)” value was 100±6%.
